# Test results as given in US10087148B2, “Quinazolines as biogenic amine transport modulators” (THE UNITED STATES OF AMERICA AS REPRESENTED BY THE …, priority 2014, dated 2018).
# Legend:
# Assay type in all cases: biochemical
# [1] = molecular target: serotonin transporter (SERT) (Rattus norvegicus (Rat), UniProt P31652); test: [3H]serotonin (5-HT) uptake inhibition in rat brain synaptosomes; conditions: mean ± S.D.; n = 3
# Method: Uptake inhibition assay for the serotonin transporter was conducted in rat brain synaptosomes as described elsewhere with minor modifications (Rothman et al., Synapse 39, 32-41 (2001)). Freshly removed whole brain minus cerebellum and caudate was homogenized in 10% ice-cold sucrose with 12 strokes of a hand-held Potter-Elvehjem homogenizer followed by centrifugation at 1000×g for 10 min. The supernatants were saved on ice and used immediately. Transporter activity at SERT was assessed using 5 nM [^3H]serotonin. The assay buffer was Krebs-phosphate buffer containing 154.4 mM NaCl, 2.9 mM KCl, 1.1 mM CaCl2, 0.83 mM MgCl2, 5 mM glucose, 1 mg/mL ascorbic acid, and 50 μM pargyline. […] Uptake inhibition assays were conducted at 25° C. and were initiated by adding 100 μL of tissue to 900 μL assay buffer containing test drug and [^3H]serotonin. Test drugs were diluted in assay buffer containing 1 mg/mL bovine serum albumin. Nonspecific uptake was measured by incubating in the presence of 10 μM indatraline. The reactions were stopped after 30 min by rapid vacuum filtration with a cell harvester (BRANDEL) over GF/B filters (Whatman) presoaked in wash buffer maintained at 25° C. (10 mM Tris-HCl, pH 7.4/150 mM NaCl). Filters were rinsed with 6 mL wash buffer and retained tritium was quantified by a MicroBeta liquid scintillation counter (PerkinElmer) after overnight extraction in 0.6 mL of liquid scintillation cocktail (Cytoscint, ICN). The data from three experiments were pooled and fit to a dose-response curve equation (using Kaleidagraph), to yield an Emax and EC50 value.
# [2] = molecular target: norepinephrine transporter (NET) (Rattus norvegicus, UniProt Q63380); test: [3H]norepinephrine (NE) uptake inhibition in rat brain synaptosomes; conditions: mean ± S.D.; n = 3
# Method: Uptake inhibition assay for the norepinephrine transporter was conducted in rat brain synaptosomes as described elsewhere with minor modifications (Rothman et al., Synapse 39, 32-41 (2001)). Freshly removed whole brain minus cerebellum and caudate was homogenized in 10% ice-cold sucrose with 12 strokes of a hand-held Potter-Elvehjem homogenizer followed by centrifugation at 1000×g for 10 minutes. The supernatants were saved on ice and used immediately. Transporter activity at NET was assessed using 10 nM [^3H]norepinephrine. The assay buffer was Krebs-phosphate buffer containing 154.4 mM NaCl, 2.9 mM KCl, 1.1 mM CaCl2, 0.83 mM MgCl2, 5 mM glucose, 1 mg/mL ascorbic acid, and 50 μM pargyline. […] Uptake inhibition assays were conducted at 37° C. and were initiated by adding 100 μL of tissue to 900 μL assay buffer containing test drug and [^3H]norepinephrine. Test drugs were diluted in assay buffer containing 1 mg/mL bovine serum albumin. Nonspecific uptake was measured by incubating in the presence of 10 μM indatraline. The reactions were stopped after 10 minutes by rapid vacuum filtration with a cell harvester (BRANDEL) over GF/B filters (Whatman) presoaked in wash buffer maintained at 25° C. (10 mM Tris-HCl, pH 7.4/150 mM NaCl). Filters were rinsed with 6 mL wash buffer and retained tritium was quantified by a MicroBeta liquid scintillation counter (PerkinElmer) after overnight extraction in 0.6 mL of liquid scintillation cocktail (Cytoscint, ICN). The data from three experiments were pooled and fit to a dose-response curve equation (using Kaleidagraph), to yield an Emax and EC50 value.
# [3] = molecular target: dopamine transporter (DAT) (Rattus norvegicus (Rat), UniProt P23977); test: [3H]dopamine (DA) uptake inhibition in rat brain (caudate) synaptosomes; conditions: for DA Uptake Emax / EC50: rat caudate synaptosomes, 5 nM [3H]dopamine, mean ± SD
# Method: Uptake inhibition assay for the dopamine transporter was conducted in rat brain synaptosomes as described elsewhere with minor modifications (Rothman et al., Synapse 39, 32-41 (2001)). Freshly removed caudate was homogenized in 10% ice-cold sucrose with 12 strokes of a hand-held Potter-Elvehjem homogenizer followed by centrifugation at 1000×g for 10 min. The supernatants were saved on ice and used immediately. Transporter activity was assessed using 5 nM [^3H]dopamine. The assay buffer was Krebs-phosphate buffer containing 154.4 mM NaCl, 2.9 mM KCl, 1.1 mM CaCl2, 0.83 mM MgCl2, 5 mM glucose, 1 mg/mL ascorbic acid, and 50 μM pargyline. The selectivity of the uptake assay for DAT was optimized by including 100 nM citalopram and 100 nM desipramine as blockers of SERT and NET in the sucrose solution and assay buffer. Uptake inhibition assays were conducted at 25° C. and were initiated by adding 100 μl of tissue to 900 μL assay buffer containing test drug and [^3H]dopamine. Test drugs were diluted in assay buffer containing 1 mg/mL bovine serum albumin. Nonspecific uptake was measured by incubating in the presence of 10 μM indatraline. The reactions were stopped after 15 minutes by rapid vacuum filtration with a cell harvester (BRANDEL) over GF/B filters (Whatman) presoaked in wash buffer maintained at 25° C. (10 mM Tris-HCl, pH 7.4/150 mM NaCl). Filters were rinsed with 6 mL wash buffer and retained tritium was quantified by a MicroBeta liquid scintillation counter (PerkinElmer) after overnight extraction in 0.6 mL of liquid scintillation cocktail (Cytoscint, ICN). The data from three experiments were pooled and fit to a dose-response curve equation (using Kaleidagraph), to yield an Emax and EC50 value.
# All of the test compounds were synthesized as described herein. Next, 8-point dose-response curves were generated for each compound (1-20,000 nM) in the [^3H]DA uptake assay. The data from three experiments were pooled and fit to a dose-response curve equation (using KaleidaGraph; Synergy Software, Reading, Pa.) to yield an Emax and IC50 value. […] Selected compounds were also tested for their ability to inhibit [^3H]WIN35428 binding to rat caudate DAT.
# Chain of dopamine transporter (DAT) (P23977 whole entry): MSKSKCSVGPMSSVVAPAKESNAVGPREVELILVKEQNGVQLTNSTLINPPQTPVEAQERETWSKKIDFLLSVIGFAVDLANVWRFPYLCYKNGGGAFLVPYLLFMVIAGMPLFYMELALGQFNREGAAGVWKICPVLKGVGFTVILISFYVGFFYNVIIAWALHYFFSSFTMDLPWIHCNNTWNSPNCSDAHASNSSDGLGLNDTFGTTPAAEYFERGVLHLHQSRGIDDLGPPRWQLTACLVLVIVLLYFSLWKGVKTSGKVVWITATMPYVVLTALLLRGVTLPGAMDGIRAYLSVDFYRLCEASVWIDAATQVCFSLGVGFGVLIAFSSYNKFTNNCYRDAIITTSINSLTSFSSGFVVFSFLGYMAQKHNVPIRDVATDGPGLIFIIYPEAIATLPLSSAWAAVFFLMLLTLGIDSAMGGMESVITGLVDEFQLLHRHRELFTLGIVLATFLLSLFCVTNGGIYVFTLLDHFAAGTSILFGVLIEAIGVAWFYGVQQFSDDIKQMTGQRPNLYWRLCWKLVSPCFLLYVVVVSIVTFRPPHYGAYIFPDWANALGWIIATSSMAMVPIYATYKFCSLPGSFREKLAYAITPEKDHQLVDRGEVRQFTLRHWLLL
# Chain of norepinephrine transporter (NET) (Q63380 1-617): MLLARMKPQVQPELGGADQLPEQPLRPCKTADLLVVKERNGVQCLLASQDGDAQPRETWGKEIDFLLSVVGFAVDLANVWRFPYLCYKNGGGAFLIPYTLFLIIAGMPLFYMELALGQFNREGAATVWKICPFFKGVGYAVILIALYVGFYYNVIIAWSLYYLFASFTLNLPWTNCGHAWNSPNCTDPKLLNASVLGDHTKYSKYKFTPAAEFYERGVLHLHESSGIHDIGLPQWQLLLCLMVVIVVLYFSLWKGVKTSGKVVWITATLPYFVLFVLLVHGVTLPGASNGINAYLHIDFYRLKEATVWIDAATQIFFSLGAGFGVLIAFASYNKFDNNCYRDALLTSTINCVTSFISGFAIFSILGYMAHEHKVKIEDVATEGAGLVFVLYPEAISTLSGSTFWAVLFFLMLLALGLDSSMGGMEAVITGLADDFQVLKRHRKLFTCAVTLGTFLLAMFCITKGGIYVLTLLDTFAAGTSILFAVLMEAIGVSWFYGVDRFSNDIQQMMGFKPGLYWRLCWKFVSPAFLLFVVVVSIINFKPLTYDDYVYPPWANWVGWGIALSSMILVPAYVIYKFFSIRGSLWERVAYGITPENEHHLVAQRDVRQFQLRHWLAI
# Chain of serotonin transporter (SERT) (P31652 whole entry): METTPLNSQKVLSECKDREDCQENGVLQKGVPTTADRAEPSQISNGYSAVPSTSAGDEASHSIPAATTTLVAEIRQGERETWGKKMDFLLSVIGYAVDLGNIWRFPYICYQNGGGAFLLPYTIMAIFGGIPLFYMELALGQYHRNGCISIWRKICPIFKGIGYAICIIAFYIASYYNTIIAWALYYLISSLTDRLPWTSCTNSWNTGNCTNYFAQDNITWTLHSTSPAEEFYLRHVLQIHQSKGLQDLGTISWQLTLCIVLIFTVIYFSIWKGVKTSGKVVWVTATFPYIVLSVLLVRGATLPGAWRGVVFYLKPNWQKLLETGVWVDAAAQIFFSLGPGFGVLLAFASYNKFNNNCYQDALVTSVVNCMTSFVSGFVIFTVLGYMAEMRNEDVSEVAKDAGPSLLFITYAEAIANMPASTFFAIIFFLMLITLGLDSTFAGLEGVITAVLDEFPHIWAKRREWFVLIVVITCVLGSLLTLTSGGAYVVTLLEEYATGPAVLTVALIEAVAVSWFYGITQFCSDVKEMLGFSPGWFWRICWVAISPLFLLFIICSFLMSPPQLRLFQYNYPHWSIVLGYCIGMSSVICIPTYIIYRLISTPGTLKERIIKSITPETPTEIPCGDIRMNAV
Compound,DA Uptake Emax [3],EC50 [3],further results
"COC(=O)[C@H]1[C@@H](OC(=O)c2ccccc2)C[C@@H]2CC[C@H]1N2C [Cocaine, reference compound]",,,SERT Uptake Emax [1]: 98 ± 2%; NET Uptake Emax [2]: 102 ± 2%
"CN(C)c1ccc(-c2nc(NCC(c3ccccc3)c3ccccn3)c3ccccc3n2)cc1 (stereo not shown) [Compound 3, 2-(4-(dimethylamino)phenyl)-N-(2-phenyl-2-(pyridin-2-yl)ethyl)quinazolin-4-amine]",91 ± 4 % I,22 ± 6 nM,
"CS(=O)(=O)Nc1ccc(-c2nc(NCC(c3ccccc3)C3CCCCC3)c3ccccc3n2)cc1 (stereo not shown) [Compound 6, N-(4-(4-((2-cyclohexyl-2-phenylethyl)amino)quinazolin-2-yl)phenyl)methanesulfonamide]",75 ± 2 % I,16 ± 2 nM,
"CS(=O)(=O)Nc1ccc(-c2nc(NCC(c3ccccc3)N3CCCCC3)c3ccccc3n2)cc1 (stereo not shown) [Compound 17, N-(4-(4-((2-phenyl-2-(piperidin-1-yl)ethyl)amino)quinazolin-2-yl)phenyl)methanesulfonamide]",83 ± 5 % I,62 ± 20 nM,
"CN(C)c1ccc(-c2nc(NCC(C)(c3ccccc3)c3ccccc3)c3ccccc3n2)cc1 [Compound 38, 2-(4-(dimethylamino)phenyl)-N-(2,2-diphenylpropyl)quinazolin-4-amine]",68 ± 3 % I,15 ± 4 nM,
"CS(=O)(=O)Nc1ccc(-c2nc(NCC(Oc3ccccc3)c3ccccc3)c3ccccc3n2)cc1 (stereo not shown) [Compound 49, N-(4-(4-((2-phenoxy-2-phenylethyl)amino)quinazolin-2-yl)phenyl)methanesulfonamide]",67 ± 2 % I,30 ± 5 nM,
"CN(C)c1ccc(-c2nc(NCC(c3ccccc3)c3ncccn3)c3ccccc3n2)cc1 (stereo not shown) [Compound 9, 2-(4-(dimethylamino)phenyl)-N-(2-phenyl-2-(pyrimidin-2-yl)ethyl)quinazolin-4-amine]",91 ± 3 % I,117 ± 22 nM,
"CS(=O)(=O)Nc1ccc(-c2nc(NCC(Cc3ccccc3)c3ccccc3)c3ccccc3n2)cc1 (stereo not shown) [Compound 27, N-(4-(4-((2,3-diphenylpropyl)amino)quinazolin-2-yl)phenyl)methanesulfonamide]",76 ± 2 % I,58 ± 9 nM,
"CCN(CC)C(=O)[C@]1(c2ccccc2)C[C@@H]1CNc1nc(-c2ccc(N(C)C)cc2)nc2ccccc12 [Compound 46, (1R,2S)-2-(((2-(4-(dimethylamino)phenyl)quinazolin-4-yl)amino)methyl)-N,N-diethyl-1-phenylcyclopropanecarboxamide]",93 ± 1 % I,243 ± 18 nM,
"CS(=O)(=O)Nc1ccc(-c2nc(NCC(c3cccnc3)c3ccc[nH]3)c3ccccc3n2)cc1 (stereo not shown) [Compound 30, N-(4-(4-((2-(pyridin-3-yl)-2-(1H-pyrrol-2-yl)ethyl)amino)quinazolin-2-yl)phenyl)methanesulfonamide]",79 ± 3 % I,202 ± 42 nM,
"CS(=O)(=O)Nc1ccc(-c2nc(NC(Cc3ccccc3)c3ccccc3)c3ccccc3n2)cc1 (stereo not shown) [Compound 41, N-(4-(4-((1,2-diphenylethyl)amino)quinazolin-2-yl)phenyl)methanesulfonamide]",69 ± 3 % I,50 ± 14 nM,
c1ccc(C(CNc2nc(-c3ccc4c(c3)CCN4)nc3ccccc23)c2ccccc2)cc1 [SRI-29986],,,"Efficacy of [3H]DA (DAT) uptake inhibition, in words [3]: partial inhibitors; One-Site Emax ([3]; [3H]DA uptake, one-component fit): 75 ± 3 % I; Two-Site Emax-1 ([3]; [3H]DA uptake, two-component fit, component 1): 37 × 10^8 ± 2.7 × 10^8 % I; Two-Site Emax-2 ([3]; [3H]DA uptake, two-component fit, component 2): 37 × 10^8 ± 0.7 × 10^8 % I"
"CS(=O)(=O)Nc1ccc(-c2nc(NCC(c3ccccc3)N3CCCC3)c3ccccc3n2)cc1 (stereo not shown) [Compound 20, N-(4-(4-((2-phenyl-2-(pyrrolidin-1-yl)ethyl)amino)quinazolin-2-yl)phenyl)methanesulfonamide]",79 ± 5 % I,160 ± 51 nM,
"CN(C)c1ccc(-c2nc(NCC(c3ccccc3)N3CCCCC3)c3ccccc3n2)cc1 (stereo not shown) [Compound 16, 2-(4-(dimethylamino)phenyl)-N-(2-phenyl-2-(piperidin-1-yl)ethyl)quinazolin-4-amine]",88 ± 4 % I,34 ± 9 nM,
"CN(C)c1ccc(-c2nc(NCC(c3ccccc3)c3ccncc3)c3ccccc3n2)cc1 (stereo not shown) [Compound 11, 2-(4-(Dimethylamino)phenyl)-N-(2-phenyl-2-(pyridin-4-yl)ethyl)quinazolin-4-amine]",77 ± 2 % I,13 ± 3 nM,
"CN(C)c1ccc(-c2nc(NCC(c3cccnc3)c3ccc[nH]3)c3ccccc3n2)cc1 (stereo not shown) [Compound 31, 2-(4-(dimethylamino)phenyl)-N-(2-(pyridin-3-yl)-2-(1H-pyrrol-2-yl)ethyl)quinazolin-4-amine]",85 ± 4 % I,47 ± 12 nM,
"CN(C)c1ccc(-c2nc(NCC(c3ccccc3)n3ccnc3)c3ccccc3n2)cc1 (stereo not shown) [Compound 13, N-(2-(1H-imidazol-1-yl)-2-phenylethyl)-2-(4-(dimethylamino)phenyl)quinazolin-4-amine]",86 ± 3 % I,138 ± 21 nM,
"Cc1cc(N(C)C)ccc1-c1nc(NCC(c2ccccc2)c2ccc(CO)[nH]2)c2ccccc2n1 (stereo not shown) [Compound 28, (5-(2-((2-(4-(dimethylamino)-2-methylphenyl)quinazolin-4-yl)amino)-1-phenylethyl)-1H-pyrrol-2-yl)methanol]",84 ± 5 % I,18 ± 7 nM,
"CS(=O)(=O)Nc1ccc(-c2nc(NCC(c3ccccn3)c3ccc[nH]3)c3ccccc3n2)cc1 (stereo not shown) [Compound 32, N-(4-(4-((2-(pyridin-2-yl)-2-(1H-pyrrol-2-yl)ethyl)amino)quinazolin-2-yl)phenyl)methanesulfonamide]",73 ± 3 % I,379 ± 80 nM,
